Assay results from EP1145714A1, “DRUGS” (Takeda Chemical Industries, Ltd., priority 1998, dated 2000).

How the values were obtained:
[1] = system: cisplatin-induced acute vomiting in dogs; assay: Cisplatin-induced acute vomiting in dogs, compound intravenously given; assay type: in vivo, beagle dogs; conditions: cisplatin 3 mg/kg i.v.; for Duration of vomiting (in hour;, mean ± SD) / Frequency of vomiting (mean ± SD) / Number of dogs with vomiting/number of tested dogs / Time period until first vomiting (in hour;, mean ± SD): 5 hours
Experimental: Male or female 3 beagle dogs (7.3 to 12.0 kg) per one group were used. Cisplatin was intravenously administered at 3 mg/3 ml/kg. 30 minutes before cisplatin administration, predetermined doses of the compound No. 3 were intravenously given to the animals under fasting. Similarly, a predetermined volume of PEG 400 was intravenously given to a control animal group under fasting.
The compound No. 3 was dissolved in PEG 400 to predetermined concentrations, for intravenous dosing at a ratio of 1 ml per 1 kg body weight. Additionally, PEG 400 was intravenously given at a ratio of 1 ml per 1 kg body weight. The data relating to the frequency of vomiting, the latency and the time period from the occurrence of vomiting to the termination thereof were statistically analyzed by the Dunnett test, with reference to the difference from the control group.
(§1) The acute retching suppression ratio and acute vomiting suppression ratio were determined in the same manner as in Example 1,3.

[2] = system: acute vomiting induced by cisplatin in ferrets; assay: Acute vomiting induced by cisplatin in ferrets, compound intraperitoneally given; assay type: in vivo; conditions: 1 mg/kg i.p., cisplatin 10 mg/kg i.p.
Experimental: 6 to 9 male ferrets (1.2 to 1.7 kg) per one group were used. Cisplatin was intraperitoneally given at 10 mg/kg. 30 minutes prior to cisplatin administration, predetermined doses of the compound No. 3 were intraperitoneally given to the animals under fasting. Similarly, PEG 400 was intraperitoneally given to a control animal group under fasting. The frequency of vomiting was counted in number, up to 5 hours after cisplatin administration.
The compound No. 3 was dissolved in PEG 400, for intraperitoneal dosing at a ratio of 1 ml per 1 kg body weight. Additionally, PEG 400 was intraperitoneally given at a ratio of 1 ml per 1 kg body weight. The data relating to the frequency of vomiting, the latency and the time period from the occurrence of vomiting to the termination thereof were statistically analyzed by the t test, with reference to the difference from the control group.
as §1

Cc1ccc(-c2c3n(c(=O)c4ncccc24)CC[C@@H](C)CN(Cc2cc(C(F)(F)F)cc(C(F)(F)F)c2)C3=O)cc1 [Cpd. No.3, (9R)-7-[3,5-bis(trifluoromethyl)benzyl]-6,7,8,9,10,11-hexahydro-9-methyl-5-(4-methylphenyl)-6,13-dioxo-13H-[1,4]diazocino[2,1-g][1,7]naphthylidine]
Suppression ratio of acute vomiting ([1]; 0.3 mg/kg i.v.): 34 % b | Duration of vomiting (in hour;, mean ± SD) ([1]; 0.3 mg/kg i.v.): 1.6 ± 0.2 h | Frequency of vomiting (mean ± SD) ([1]; 0.3 mg/kg i.v.): 12.0 ± 1.5a | Number of dogs with vomiting/number of tested dogs ([1]; 0.3 mg/kg i.v.): 3/3 | Time period until first vomiting (in hour;, mean ± SD) ([1]; 0.3 mg/kg i.v.): 1.6 ± 0.2 h | Effect on cisplatin-induced vomiting (in words) ([1]; 0.3 mg/kg or higher i.v.): significantly suppressed | Suppression ratio of acute vomiting ([1]; 1 mg/kg i.v.): 71 % b | Duration of vomiting (in hour;, mean ± SD) ([1]; 1 mg/kg i.v.): 1.7 ± 0.5 h | Frequency of vomiting (mean ± SD) ([1]; 1 mg/kg i.v.): 5.3 ± 1.2 a | Number of dogs with vomiting/number of tested dogs ([1]; 1 mg/kg i.v.): 3/3 | Time period until first vomiting (in hour;, mean ± SD) ([1]; 1 mg/kg i.v.): 1.4 ± 0.3 h | Effect on cisplatin-induced vomiting (in words) ([1]; 3 mg/kg i.v.): almost completely suppressed | Suppression ratio of acute vomiting ([1]; 3 mg/kg i.v.): 96 % b | Duration of vomiting (in hour;, mean ± SD) ([1]; 3 mg/kg i.v.): 0.1 ± 0.1 a hour | Frequency of vomiting (mean ± SD) ([1]; 3 mg/kg i.v.): 0.7 ± 0.7 a | Number of dogs with vomiting/number of tested dogs ([1]; 3 mg/kg i.v.): 1/3 | Time period until first vomiting (in hour;, mean ± SD) ([1]; 3 mg/kg i.v.): 3.9 ± 1.1 a hour | Effect on the latency (in words) ([1]; i.v.): prolonged | Effect on cisplatin-induced retching and actual vomiting (in words) [2]: significantly suppressed | Suppression ratio of acute retching [2]: 53 % b | Suppression ratio of acute vomiting [2]: 49 % a | Duration of retching (in minute, mean ± SD) ([2]; 5 hours): 2.6 ± 0.3 min | Duration of vomiting (in minute, mean ± SD) ([2]; 5 hours): 1.7 ± 0.3 b minute | Frequency of retching (mean ± SD) ([2]; 5 hours): 57.5 ± 6.2 b | Frequency of vomiting (mean ± SD) ([2]; 5 hours): 5.7 ± 1.0 a | Number of ferrets with retching /number of tested ferrets ([2]; 5 hours): 6/6 | Number of ferrets with vomiting /number of tested ferrets ([2]; 5 hours): 6/6 | Time period until first retching (in minute, mean ± SD) ([2]; 5 hours): 1.5 ± 0.1 min | Time period until first vomiting (in minute, mean ± SD) ([2]; 5 hours): 1.8 ± 0.1 min
